Literature values, collected in patent US20130274331A1, “Method for Treating Hyperuricemia in Patients with Gout Using Halofenate or Halofenic Acid and an Anti-Inflammatory Agent” (Metabolex, Inc., priority 2012, published 2013).

Details: gout patients; monotherapy at 40, 80, 120, 160 and 240 mg/day

For `O=c1[nH]cnc2c(CN3C[C@H](CO)[C@@H](O)C3)c[nH]c12` [BCX4208, 7-(((3R,4R)-3-hydroxy-4-(hydroxymethyl)pyrrolidin-1-yl)methyl)-3H-pyrrolo[3,2-d]pyrimidin-4(5H)-one], the “reduction of serum uric acid” value is given as “rapidly and significantly reduced serum uric acid”.
